Here are results for 22 compounds from article PMC9217908, “Screening of commonly prescribed drugs for effects on the CAT1-mediated transport of L-arginine and arginine derivatives” (Amino Acids, 2022).

The structures appear in SMILES notation. Where two headings read alike, the source gives them in different places.

Assay in all cases: cell-based
The target in experiment [1] is T1, CAT1 (cationic amino acid transporter 1, CAT1/SLC7A1) (Homo sapiens, UniProt P30825).
T1 construct: full-length human transporter stably transfected in HEK cells (HEK-CAT1); net uptake against HEK-VC vector control cells
Set-up: species or system HEK-CAT1 (HEK293 stably transfected); Inhibition of net CAT1-mediated [3H]-L-homoarginine (1 uM) uptake, 2.5 min, scintillation counting, vector control subtracted. Particulars: HEK293, L-homoarginine 1 uM as substrate; for inhibition at 20 µM: read-out: % Inhibition of L-homoarginine uptake at 20 µM; for inhibition at 200 µM: read-out: % Inhibition of L-homoarginine uptake at 200 µM. The essentials: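 HEK-CAT1 cells with HEK-VC vector controls; [3H]-L-homoarginine (1 μM) uptake over 2.5 min with or without test compound at 20 µM or 200 µM. Net CAT1 uptake (CAT1 minus VC) gives inhibition (%) = 100 – (V/V0 × 100). Negative values mean stimulated uptake; n = 6–9 from at least two independent experiments.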

The target in experiment [2] is T1, CAT1 (cationic amino acid transporter 1, CAT1/SLC7A1). Set-up: species or system HEK-CAT1 (HEK293 stably transfected); Inhibition of net CAT1-mediated [3H]-ADMA (1 uM) uptake, 2.5 min, scintillation counting, vector control subtracted. Particulars: HEK293, ADMA 1 uM as substrate; for inhibition at 20 µM: read-out: % Inhibition of ADMA uptake at 20 µM; for inhibition at 200 µM: read-out: % Inhibition of ADMA uptake at 200 µM. The essentials: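 HEK cells expressing CAT1 and vector-control cells took up [^3H]-L-arginine for 5 min, or [^3H]-L-homoarginine or [^3H]-ADMA (1 μM) for 2.5 min, with or without drug at 20 or 200 µM. Net CAT1 uptake was CAT1 cells minus control cells, and inhibition (%) = 100 − V/V0×100. Negative values mean stimulation; n = 6–9.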

Experiment [3] has the same target. The arrangement: species or system HEK-CAT1 (HEK293 stably transfected); Inhibition of net CAT1-mediated [3H]-L-arginine (100 uM) uptake, 5 min, scintillation counting, vector control subtracted. Particulars: HEK293, L-arginine 100 uM as substrate; for inhibition at 20 µM: read-out: % Inhibition of L-arginine uptake at 20 µM; for inhibition at 200 µM: read-out: % Inhibition of L-arginine uptake at 200 µM. In outline: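 HEK-CAT1 and vector-control HEK-VC cells took up [3H]-L-arginine (100 μM) for 5 min, with or without drug at 20 or 200 µM; [3H]-L-homoarginine or [3H]-ADMA uptake ran 2.5 min. Net uptake is CAT1 minus VC cells, and inhibition (%) = 100 − (V/V0 × 100). Negative values mean stimulated uptake.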

T1 sequence (P30825 whole entry): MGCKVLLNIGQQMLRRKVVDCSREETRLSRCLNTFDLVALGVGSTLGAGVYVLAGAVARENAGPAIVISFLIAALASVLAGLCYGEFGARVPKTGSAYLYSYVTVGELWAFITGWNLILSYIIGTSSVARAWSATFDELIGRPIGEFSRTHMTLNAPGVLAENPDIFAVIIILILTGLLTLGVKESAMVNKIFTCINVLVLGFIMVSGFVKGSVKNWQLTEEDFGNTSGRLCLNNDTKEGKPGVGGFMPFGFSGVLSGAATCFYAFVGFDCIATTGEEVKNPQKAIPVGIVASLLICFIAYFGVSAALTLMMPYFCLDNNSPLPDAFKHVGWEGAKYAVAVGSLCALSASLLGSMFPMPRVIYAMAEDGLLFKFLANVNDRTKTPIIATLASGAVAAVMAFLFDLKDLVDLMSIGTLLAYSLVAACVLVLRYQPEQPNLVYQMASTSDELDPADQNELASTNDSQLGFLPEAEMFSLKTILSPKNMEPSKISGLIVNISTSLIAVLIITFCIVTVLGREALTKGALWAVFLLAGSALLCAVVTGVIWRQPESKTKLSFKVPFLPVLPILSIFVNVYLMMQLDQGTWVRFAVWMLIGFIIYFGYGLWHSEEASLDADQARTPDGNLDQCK

What is called inhibition is the change of the read-out against control, counted positive when it falls. As to `C[C@H]1O[C@@H](O[C@H]2[C@@H](O)C[C@H](O[C@H]3[C@@H](O)C[C@H](O[C@H]4CC[C@@]5(C)[C@H](CC[C@@H]6[C@@H]5C[C@@H](O)[C@]5(C)[C@@H](C7=CC(=O)OC7)CC[C@]65O)C4)O[C@@H]3C)O[C@@H]2C)C[C@H](O)[C@@H]1O` [Digoxin], the inhibition at 20 µM in experiment [1] is -4.8 ± 6.8%; in experiment [2], -7.4 ± 5.9%; in experiment [3], -4.3 ± 7.3%. Moreover, the figures for the inhibition at 200 µM in experiment [1], in experiment [2] and in experiment [3] were -12.7 ± 0.8%, 14.4 ± 4.6% and -14.9 ± 17.8%, respectively.
`COc1ccc([C@@H]2Sc3ccccc3N(CCN(C)C)C(=O)[C@@H]2OC(C)=O)cc1` [Diltiazem]: the values for the inhibition at 20 µM in experiment [1], in experiment [2] and in experiment [3] were 8.6 ± 4.3%, 8.5 ± 4.3% and -7.3 ± 7.7%, respectively. Moreover, the figures for the inhibition at 200 µM in experiment [1], in experiment [2] and in experiment [3] were 29 ± 2.6%, 9.1 ± 7.7% and 29.3 ± 2.5%, respectively.
As to `C[C@H]1c2cccc(O)c2C(=O)C2=C(O)[C@]3(O)C(=O)C(C(N)=O)=C(O)[C@@H](N(C)C)[C@@H]3[C@@H](O)[C@@H]21` [Doxycycline], the inhibition at 20 µM in experiment [1] turned out to be 9.7 ± 4.1%; in experiment [2] it was 3.1 ± 6%; in experiment [3] it was 9.7 ± 4.1%. Moreover, the inhibition at 200 µM in experiment [1] worked out at 9.6 ± 1.4%; in experiment [2], 9.9 ± 3.1%; in experiment [3], 6.2 ± 0.6%.
`CNCC[C@H](Oc1cccc2ccccc12)c1cccs1` [Duloxetine]: the inhibition at 20 µM turned out to be 7.6 ± 6.5% in experiment [1], 1.9 ± 5.4% in experiment [2] and 6.1 ± 7.4% in experiment [3]. Besides, the inhibition at 200 µM is 11.9 ± 3.1% in experiment [1], -14.2 ± 4.9% in experiment [2] and 12.6 ± 2.6% in experiment [3].
As for `CCOC(=O)[C@H](CCc1ccccc1)N[C@@H](C)C(=O)N1CCC[C@H]1C(=O)O` [Enalapril], the inhibition at 20 µM in experiment [1] was determined as 12.7 ± 4.6%; in experiment [2], 27.2 ± 2.1%; in experiment [3] it was 9.9 ± 8.3%. In addition, the inhibition at 200 µM was -9.5 ± 1.2% in experiment [1], 5.3 ± 1.8% in experiment [2] and -1.5 ± 1.6% in experiment [3].
`C[C@@H](O)[C@H]1C(=O)N2C(C(=O)O)=C(S[C@@H]3CN[C@H](C(=O)Nc4cccc(C(=O)O)c4)C3)[C@H](C)[C@H]12` [Ertapenem]: the inhibition at 20 µM in experiment [1] is -28.5 ± 4.8%; in experiment [2], -4.1 ± 6%; in experiment [3], -28.9 ± 4.8%. In addition, the inhibition at 200 µM in experiment [1] is -15.1 ± 1.6%; in experiment [2], 9.9 ± 3.1%; in experiment [3], -15.8 ± 5.9%.
In the case of `C#C[C@]1(O)CC[C@H]2[C@@H]3CCc4cc(O)ccc4[C@H]3CC[C@@]21C` [Ethinylestradiol], the inhibition at 20 µM was 8.2 ± 5.4% in experiment [1], -1.6 ± 3.4% in experiment [2] and 7.4 ± 5.9% in experiment [3]. Besides, the inhibition at 200 µM was -10.1 ± 0.5% in experiment [1], -35.3 ± 0.8% in experiment [2] and -10.5 ± 3.3% in experiment [3].
Regarding `Cc1ccc(-c2ncc(Cl)cc2-c2ccc(S(C)(=O)=O)cc2)cn1` [Etorixocib], the inhibition at 20 µM in experiment [1] was -5.4 ± 2.1%; in experiment [2], -17.2 ± 13.5%; in experiment [3], 0.7 ± 3.8%. Moreover, the inhibition at 200 µM in experiment [1] was 31.8 ± 4.3%; in experiment [2], -22.8 ± 2.2%; in experiment [3], -20.7 ± 2.9%.
For `CCOC(=O)C1=C(C)NC(C)=C(C(=O)OC)C1c1cccc(Cl)c1Cl` (stereo not drawn) [Felodipine], the figures for the inhibition at 20 µM in experiment [1], in experiment [2] and in experiment [3] were -9.6 ± 2.8%, -7.4 ± 4.4% and -2.2 ± 5.9%, respectively. In addition, the figures for the inhibition at 200 µM in experiment [1], in experiment [2] and in experiment [3] were -18.2 ± 1%, 3.6 ± 2.1% and -39.2 ± 1.4%, respectively.
As for `CC(C)OC(=O)C(C)(C)Oc1ccc(C(=O)c2ccc(Cl)cc2)cc1` [Fenofibrate], the inhibition at 20 µM was 10.1 ± 2.9% in experiment [1], -4.8 ± 2.1% in experiment [2] and 16.3 ± 6.6% in experiment [3]. Also, the inhibition at 200 µM worked out at 8.9 ± 0.4% in experiment [1], 0.2 ± 3.2% in experiment [2] and 13.1 ± 2% in experiment [3].
Take `C[C@]12CCC(=O)C=C1CC[C@H]1[C@@H]3CC[C@](O)(C(=O)CO)[C@@]3(C)C[C@H](O)[C@@]12F` [Fludrocortisone]: the inhibition at 20 µM in experiment [1] was -27 ± 6.7%; in experiment [2], 0.5 ± 3.9%; in experiment [3], -29.4 ± 8.1%. For the same compound, the inhibition at 200 µM was -15.1 ± 0.6% in experiment [1], -43.9 ± 4.9% in experiment [2] and -24.6 ± 1% in experiment [3].
In the case of `CNCCC(Oc1ccc(C(F)(F)F)cc1)c1ccccc1` (stereo not drawn) [Fluoxetine], the inhibition at 20 µM was -4.4 ± 5.2% in experiment [1], -2.4 ± 2% in experiment [2] and 46.5 ± 8.5% in experiment [3]. The inhibition at 200 µM in experiment [1] was 25.6 ± 1.2%; in experiment [2], -18.8 ± 7.8%; in experiment [3], 26 ± 1.5%.
Take `COc1ccc(Cl)cc1C(=O)NCCc1ccc(S(=O)(=O)NC(=O)NC2CCCCC2)cc1` [Glibenclamide]: the inhibition at 20 µM in experiment [1] came out at 12.4 ± 2.8%; in experiment [2], 16.8 ± 2.5%; in experiment [3], 13.9 ± 3.4%. The inhibition at 200 µM in experiment [1] stood at 10.1 ± 3%; in experiment [2], 8.1 ± 2.1%; in experiment [3], 14 ± 9.6%.
Take `NS(=O)(=O)c1cc2c(cc1Cl)NCNS2(=O)=O` [Hydrochlorothiazide]: the inhibition at 20 µM in experiment [1] came to 8.5 ± 4.8%; in experiment [2], 5.5 ± 2.2%; in experiment [3], 6 ± 3.9%. The inhibition at 200 µM in experiment [1] is 7.9 ± 1.2%; in experiment [2], 9.9 ± 3.5%; in experiment [3], 20.7 ± 14.1%.
For `C[C@]12CCC(=O)C=C1CC[C@@H]1[C@@H]2[C@@H](O)C[C@@]2(C)[C@H]1CC[C@]2(O)C(=O)CO` [Hydrocortisone], the inhibition at 20 µM was 13.9 ± 9.6% in experiment [1], -0.1 ± 2.8% in experiment [2] and 8.5 ± 4.8% in experiment [3]. For the same compound, the inhibition at 200 µM is -9.5 ± 2.6% in experiment [1], -9.9 ± 2.7% in experiment [2] and -4.3 ± 2.7% in experiment [3].
Consider `CC(C)Cc1ccc(C(C)C(=O)O)cc1` (stereo not drawn) [Ibuprofen], for which the inhibition at 20 µM in experiment [1] is -7.5 ± 2.1%; in experiment [2], -20.2 ± 5.9%; in experiment [3], -5.1 ± 3.6%. The inhibition at 200 µM was -26.1 ± 0.6% in experiment [1], -44.8 ± 7.4% in experiment [2] and -33.7 ± 1.4% in experiment [3].
On to `Cc1ccc(NC(=O)c2ccc(CN3CCN(C)CC3)cc2)cc1Nc1nccc(-c2cccnc2)n1` [Imatinib], for which the inhibition at 20 µM in experiment [1] is -24.9 ± 2.1%; in experiment [2], 11.2 ± 3.4%; in experiment [3], -8.2 ± 5.2%. In addition, the inhibition at 200 µM in experiment [1] was -20.9 ± 1.1%; in experiment [2], 20.7 ± 14.1%; in experiment [3], -42.8 ± 0.3%.
For `c1c[nH]cn1` [Imidazole], the inhibition at 20 µM was -3.2 ± 2% in experiment [1], -4.7 ± 2.1% in experiment [2] and -6.3 ± 5.9% in experiment [3]. Also, the figures for the inhibition at 200 µM in experiment [1], in experiment [2] and in experiment [3] were -10.8 ± 1.6%, 20.7 ± 14.1% and -8.5 ± 1.5%, respectively.
With `CN(C)CCCN1c2ccccc2CCc2ccccc21` [Imipramine], the inhibition at 20 µM in experiment [1] is -3.1 ± 1.6%; in experiment [2], -4.3 ± 2.1%; in experiment [3], 0.08 ± 4.8%. Moreover, the figures for the inhibition at 200 µM in experiment [1], in experiment [2] and in experiment [3] were 15 ± 2.1%, 14.1 ± 4.1% and 22.6 ± 5.7%, respectively.
Take `CN1CCC(=C2c3ccccc3CC(=O)c3sccc32)CC1` [Ketotifen]: the inhibition at 20 µM in experiment [1] was 7 ± 4.2%; in experiment [2] it was 6.4 ± 4.4%; in experiment [3], 23.9 ± 0.8%. Also, the inhibition at 200 µM was 10.9 ± 2.6% in experiment [1], 1.4 ± 9.6% in experiment [2] and 9.9 ± 8.2% in experiment [3].
For `Nc1ccn([C@@H]2CS[C@H](CO)O2)c(=O)n1` [Lamivudine], the inhibition at 20 µM in experiment [1] is -3.4 ± 0.3%; in experiment [2], -5.3 ± 4%; in experiment [3] it was 27.4 ± 4.6%. In addition, the inhibition at 200 µM in experiment [1] is -3.1 ± 1.4%; in experiment [2], 22.9 ± 4.9%; in experiment [3], -3.9 ± 4.6%.
Take `c1ccc([C@H]2CN3CCSC3=N2)cc1` [Levamisole]: the figures for the inhibition at 20 µM in experiment [1], in experiment [2] and in experiment [3] were 19.6 ± 11.8%, 18.9 ± 12.5% and -18.4 ± 6.9%, respectively. In addition, the inhibition at 200 µM in experiment [1] was -15.9 ± 3.8%; in experiment [2] it was -34.3 ± 2.4%; in experiment [3] it was -17.2 ± 5.1%.
